Test results as given in US9193951B2, “Differentiation method for production of glial cell populations” (Case Western Reserve University, priority 2010, dated 2015).

Assays:
Assay type in all cases: cell-based, mice
EpiSC-derived OPCs [1] = assay: Modulation of OPC differentiation by extrinsic factors in T3 differentiation medium
Experimental: (§1) For differentiation of OPCs into oligodendrocytes, cells were plated at 2.2×10^4 cells cm^−2 and induced with neural base medium supplemented with 0.4 ng ml^−1 T3 (Sigma-Aldrich, St. Louis, Mo.), 200 ng ml^−1 SHH, 100 ng ml^−1 noggin, 10 μM dibutyryl cyclic-AMP sodium salt, 100 ng ml^−1 IGF-1 and 10 ng ml^−1 NT3. Attempts to modulate the outcome of this differentiation paradigm included treatments with Jag1 (R&D Systems, Minneapolis, Minn.), CHIR99021 (Stemgent, San Diego, Calif.), LIF (Millipore, Billerica, Mass.) and/or BMP4 (R&D Systems, Minneapolis, Minn.).
Next, the ability of extrinsic factors to modulate the differentiation of Epi-SC-derived OPCs was explored. […] As a simple proof-of-principle for using the system to screen for compounds, EpiSC-derived OPCs were exposed to three different treatment regimens involving modulation of signaling pathways (Notch, Wnt-β-catenin and BMP) previously implicated in oligodendrocyte development or differentiation. […] Using a similar protocol, the role of GSK3β, a negative regulator of Wnt-β-catenin signaling, was tested by treating EpiSC-derived OPCs with the GSK3β inhibitor CHIR99021.

EpiSC-derived OPCs [2] = assay: Differentiation of EpiSC-derived OPCs into oligodendrocytes; details: day 2 of differentiation, absence of FGF2 and PDGF-AA, n>480 cells
Experimental: as §1
Live-cell staining was used for the cell-surface marker O4. Live cells were blocked with 10% normal goat serum and treated with O4 antibody for 20 min at 37° C. Cells were gently rinsed three times with warm neural base medium and fixed in 4% paraformaldehyde. […]
To determine the differentiation capacity of the EpiSC-derived OPCs, the EpiSc-derived OPCs were treated with thyroid hormone (T3), which is known to be important both in vitro and in vivo in regulating the transition of OPCs into oligodendrocytes, in the absence of both FGF2 and PDGF-AA. […] By day 4, the overwhelming majority of EpiSC-derived OPCs had become oligodendrocytes, though cell death and rare proliferation events made exact quantification challenging without large-scale time-lapse lineage analysis. […]

EpiSC-derived OPCs [3] = assay: Respecification of EpiSC-derived OPCs into astrocytes; details: combined treatment with BMP4 and LIF; majority of cells
Experimental: as §1
The final treatment involved exposure of EpiSC-derived OPCs to signaling cascades known to respecify OPCs in vitro into an alternate glial fate, astrocytes.

[4] = tested on: EpiSC-derived patterned neuroectoderm; assay: Region-specific patterning of EpiSC-derived neuroectoderm; details: Day-4 neuroectoderm treated 1 day with retinoic acid and SHH in continued presence of noggin (combined)
Experimental: On day 4, cultures were fed with neural base medium supplemented with 100 ng ml^−1 noggin, 10 μM retinoic acid (Sigma-Aldrich, St. Louis, Mo.; maintained as a 20 mM stock solution in DMSO) and 200 ng ml^−1 SHH (R&D Systems; C24II). To test whether the induced patterned neuroectoderm behaved as un-induced neuroectoderm behaves, the induced EpiSC-derived patterned neuroectoderm were patterned in a region-specific manner. […] Day-4 EpiSC-derived patterned neuroectoderm was treated for 1 day with specific concentrations of retinoic acid and SHH in the continued presence of noggin to pattern them in a region-specific way.

Molecule: Cc1c[nH]c(-c2cnc(NCCNc3ccc(C#N)cn3)nc2-c2ccc(Cl)cc2Cl)n1 [CHIR99021]
- expression of mature oligodendrocyte markers (EpiSC-derived OPCs [1]; FIG. 5, treatment of OPCs): suppression
- oligodendrocyte differentiation (progression of Olig2+ OPCs to O4+ oligodendrocytes) (EpiSC-derived OPCs [1]; T3 differentiation medium, FIG. 5): concentration-dependent inhibition

Molecule: N[C@@H](Cc1cc(I)c(Oc2ccc(O)c(I)c2)c(I)c1)C(=O)O [T3, triiodothyronine]
- cells strongly O4+ with multiprocessed morphology (EpiSC-derived OPCs [2]): greater than 64%

Molecule: Jagged1: the Notch ligand Jagged1 (Jag1)
- rate or number of O4+ oligodendrocytes (EpiSC-derived OPCs [1]; 2 days, T3 differentiation medium): did not impact

Molecule: LIF: leukemia inhibitory factor, activator of JAK/STAT pathways
- respecification into astrocytes (morphological and gene expression changes) (EpiSC-derived OPCs [3]): upregulation of GFAP

B1: noggin: a BMP antagonist; secreted polypeptide encoded by the NOG gene (protein, UniProt Q13253 28-232, looked up)
Noggin: QHYLHIRPAPSDNLPLVDLIEHPDPIFDPKEKDLNETLLRSLLGGHYDPGFMATSPPEDRPGGGGGAAGGAEDLAELDQLLRQRPSGAMPSEIKGLEFSEGLAQGKKQRLSKKLRRKLQMWLWSQTFCPVLYAWNDLGSRFWPRYVKVGSCFSKRSCSVPEGMVCKPSKSVHLTVLRWRCQRRGGQRCGWIPIQYPIISECKCSC
- expression of OPC-relevant transcription factors Olig2 and Nkx2.2 [4]: upregulation

B2: BMP4: bone morphogenetic protein 4, ligand of the TGF beta superfamily (protein, UniProt P12644 293-408, looked up)
Bone morphogenetic protein 4: SPKHHSQRARKKNKNCRRHSLYVDFSDVGWNDWIVAPPGYQAFYCHGDCPFPLADHLNSTNHAIVQTLVNSVNSSIPKACCVPTELSAISMLYLDEYDKVVLKNYQEMVVEGCGCR
- respecification into astrocytes (morphological and gene expression changes) (EpiSC-derived OPCs [3]): upregulation of GFAP
